# Measurements taken from US7750003B2, “Compounds-943” (AstraZeneca AB, priority 2006, dated 2010).
# Biological target: recombinant mTOR (FLAG-tagged, residues 1362-2549) (Homo sapiens, UniProt P42345)
# Experiment: In vitro mTOR kinase assay (Test (a), AlphaScreen)
# Format: biochemical
# Settings: ATP 20 μM, read-out: Test (a): IC50 versus mTOR kinase
# Procedure, shortened: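 AlphaScreen read-out: a phospho-T389 p70 S6K antibody on acceptor beads captures the phosphorylated biotin-peptide on donor beads, with signal loss indicating inhibition.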
# Sequence of recombinant mTOR (FLAG-tagged, residues 1362-2549) (P42345 1362-2549): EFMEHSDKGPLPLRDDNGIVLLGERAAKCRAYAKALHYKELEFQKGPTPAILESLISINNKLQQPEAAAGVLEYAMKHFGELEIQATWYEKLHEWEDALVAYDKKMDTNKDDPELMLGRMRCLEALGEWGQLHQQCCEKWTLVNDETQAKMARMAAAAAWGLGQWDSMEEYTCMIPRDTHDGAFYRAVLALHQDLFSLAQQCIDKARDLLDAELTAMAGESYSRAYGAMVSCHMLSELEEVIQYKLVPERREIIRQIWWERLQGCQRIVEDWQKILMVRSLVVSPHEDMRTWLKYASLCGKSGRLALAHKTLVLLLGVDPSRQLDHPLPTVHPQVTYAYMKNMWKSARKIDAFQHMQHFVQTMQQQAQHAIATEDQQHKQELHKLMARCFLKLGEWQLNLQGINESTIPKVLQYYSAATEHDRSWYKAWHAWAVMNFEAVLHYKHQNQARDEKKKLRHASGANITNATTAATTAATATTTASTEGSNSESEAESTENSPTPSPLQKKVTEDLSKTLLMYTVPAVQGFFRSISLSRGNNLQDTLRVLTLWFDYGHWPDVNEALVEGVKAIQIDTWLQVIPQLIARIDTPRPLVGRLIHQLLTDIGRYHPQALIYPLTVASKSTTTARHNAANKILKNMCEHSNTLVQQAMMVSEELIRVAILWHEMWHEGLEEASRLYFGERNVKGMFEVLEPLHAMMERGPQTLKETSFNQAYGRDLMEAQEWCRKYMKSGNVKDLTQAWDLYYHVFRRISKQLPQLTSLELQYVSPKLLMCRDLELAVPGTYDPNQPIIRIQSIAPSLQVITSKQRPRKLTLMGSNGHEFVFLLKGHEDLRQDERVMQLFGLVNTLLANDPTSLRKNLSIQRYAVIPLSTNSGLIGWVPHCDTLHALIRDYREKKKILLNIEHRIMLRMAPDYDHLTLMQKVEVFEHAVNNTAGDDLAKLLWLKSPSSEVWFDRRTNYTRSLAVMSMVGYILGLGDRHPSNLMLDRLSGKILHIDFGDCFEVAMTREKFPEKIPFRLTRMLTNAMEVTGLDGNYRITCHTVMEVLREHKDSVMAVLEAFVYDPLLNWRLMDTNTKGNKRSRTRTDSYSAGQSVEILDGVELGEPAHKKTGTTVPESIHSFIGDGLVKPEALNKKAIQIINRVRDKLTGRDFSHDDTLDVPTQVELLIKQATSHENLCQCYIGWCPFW
row,IC50,Structure (SMILES)
1,470 nM,"C[C@H]1COCCN1c1cc(CS(C)(=O)=O)nc(-c2ccc(NC(=O)NCc3ncc[nH]3)cc2)n1 [Example 35l, 3-(1H-imidazol-2-ylmethyl)-1-[4-[4-[(3S)-3-methylmorpholin-4-yl]-6-(methylsulfonylmethyl)pyrimidin-2-yl]phenyl]urea]"
2,6400 nM,"C[C@H]1COCCN1c1cc(CS(C)(=O)=O)nc(-c2ccc(NC(=O)NCCCN(C)C)cc2)n1 [Example 35a, 3-(3-dimethylaminopropyl)-1-[4-[4-[(3S)-3-methylmorpholin-4-yl]-6-(methylsulfonylmethyl)pyrimidin-2-yl]phenyl]urea]"
3,1200 nM,"CNC(=O)C1CCN(C(=O)Nc2ccc(-c3nc(CS(C)(=O)=O)cc(N4CCOCC4)n3)cc2)CC1 [Example 45y, N′-methyl-N-[4-[4-(methylsulfonylmethyl)-6-morpholin-4-yl-pyrimidin-2-yl]phenyl]piperidine-1,4-dicarboxamide]"
4,1200 nM,"COc1ccc(NC(=O)Nc2ncc(-c3nc(CS(C)(=O)=O)cc(N4CCOC[C@@H]4C)n3)s2)cc1 [Example 46f, 3-(4-methoxyphenyl)-1-[5-[4-[(3S)-3-methylmorpholin-4-yl]-6-(methylsulfonylmethyl)pyrimidin-2-yl]-1,3-thiazol-2-yl]urea]"
5,14 nM,"C[C@H]1COCCN1c1cc(CN2CCN(C)CC2)nc(-c2ccc(NC(=O)NC3CC3)cc2)n1 [Example 49b, 3-cyclopropyl-1-[4-[4-[(3S)-3-methylmorpholin-4-yl]-6-[(4-methylpiperazin-1-yl)methyl]pyrimidin-2-yl]phenyl]urea]"
6,14 nM,"C[C@H]1COCCN1c1cc(CN2CC(O)C2)nc(-c2ccc(NC(=O)NC3CC3)cc2)n1 [Example 49k, 3-cyclopropyl-1-[4-[4-[(3-hydroxyazetidin-1-yl)methyl]-6-[(3S)-3-methylmorpholin-4-yl]pyrimidin-2-yl]phenyl]urea]"
7,1400 nM,"C[C@H]1COCCN1c1cc(C(C)(C)S(C)(=O)=O)nc(-c2cnc(NC(=O)NCc3cnn(C)c3)s2)n1 [Example 47c, 1-[5-[4-[(3S)-3-methylmorpholin-4-yl]-6-(2-methylsulfonylpropan-2-yl)pyrimidin-2-yl]-1,3-thiazol-2-yl]-3-[(1-methylpyrazol-4-yl)methyl]urea]"
8,300 nM,"CCOCCNC(=O)Nc1ccc(-c2nc(CS(C)(=O)=O)cc(N3CCOCC3)n2)cc1 [Example 45s, 1-(2-ethoxyethyl)-3-[4-[4-(methylsulfonylmethyl)-6-morpholin-4-yl-pyrimidin-2-yl]phenyl]urea]"
9,410 nM,"C[C@H]1COCCN1c1cc(C(C)(C)S(C)(=O)=O)nc(-c2cnc(NC(=O)Nc3cnn(C)c3)s2)n1 [Example 47b, 1-[5-[4-[(3S)-3-methylmorpholin-4-yl]-6-(2-methylsulfonylpropan-2-yl)pyrimidin-2-yl]-1,3-thiazol-2-yl]-3-(1-methylpyrazol-4-yl)urea]"
10,49 nM,"CS(=O)(=O)Cc1cc(N2CCOCC2)nc(-c2ccc(NC(=O)NCCO)cc2)n1 [Example 45k, 3-(2-hydroxyethyl)-1-[4-[4-(methylsulfonylmethyl)-6-morpholin-4-yl-pyrimidin-2-yl]phenyl]urea]"
11,1600 nM,"C[C@H]1COCCN1Cc1cc(N2CCOC[C@@H]2C)nc(-c2ccc(NC(=O)NC3CC3)cc2)n1 [Example 49l, 3-cyclopropyl-1-[4-[4-[(3S)-3-methylmorpholin-4-yl]-6-[[(3S)-3-methylmorpholin-4-yl]methyl]pyrimidin-2-yl]phenyl]urea]"
12,87 nM,"C[C@H]1COCCN1c1cc(CNCCN(C)C)nc(-c2ccc(NC(=O)NC3CC3)cc2)n1 [Example 49g, 3-cyclopropyl-1-[4-[4-[(2-dimethylaminoethylamino)methyl]-6-[(3S)-3-methylmorpholin-4-yl]pyrimidin-2-yl]phenyl]urea]"
13,410 nM,"CN(Cc1ccccc1)C(=O)Nc1ccc(-c2nc(CS(C)(=O)=O)cc(N3CCOCC3)n2)cc1 [Example 45r, 1-benzyl-1-methyl-3-[4-[4-(methylsulfonylmethyl)-6-morpholin-4-yl-pyrimidin-2-yl]phenyl]urea]"
14,150 nM,"C[C@H]1COCCN1c1cc(CN(C)CCO)nc(-c2ccc(NC(=O)NC3CC3)cc2)n1 [Example 49a, 3-cyclopropyl-1-[4-[4-[(2-hydroxyethyl-methyl-amino)methyl]-6-[(3S)-3-methylmorpholin-4-yl]pyrimidin-2-yl]phenyl]urea]"

# Continued, molecule first:
row,Structure (SMILES),IC50
1,"CCNC(=O)Nc1ccc(-c2nc(CS(C)(=O)=O)cc(N3CCOC[C@@H]3C)n2)cc1OC [Example 3a, 1-ethyl-3-[2-methoxy-4-[4-[(3S)-3-methylmorpholin-4-yl]-6-(methylsulfonylmethyl)pyrimidin-2-yl]phenyl]urea]",100 nM
2,"C[C@H]1COCCN1c1cc(CS(C)(=O)=O)nc(-n2ccc(NC(=O)Nc3ccccc3)n2)n1 [Example 25, 1-[1-[4-[(3S)-3-Methylmorpholin-4-yl]-6-(methylsulfonylmethyl)pyrimidin-2-yl]pyrazol-3-yl]-3-phenyl-urea]",1900 nM
3,"CS(=O)(=O)Cc1cc(N2CCOCC2)nc(-c2ccc(NC(=O)NC3CC3)cc2)n1 [Example 8, 3-Cyclopropyl-1-[4-[4-(methylsulfonylmethyl)-6-morpholin-4-yl-pyrimidin-2-yl]phenyl]urea]",31 nM
4,"CNC(=O)Nc1ccc(-c2nc(CS(=O)(=O)c3ccccc3OC)cc(N3CCOC[C@@H]3C)n2)cc1 [Example 33b, 1-[4-[4-[(2-methoxyphenyl)sulfonylmethyl]-6-[(3S)-3-methylmorpholin-4-yl]pyrimidin-2-yl]phenyl]-3-methyl-urea]",66 nM
5,"Cc1ccc(NC(=O)Nc2ccc(-c3nc(CS(C)(=O)=O)cc(N4CCOCC4)n3)cc2)cc1 [Example 7a, 1-(4-methylphenyl)-3-[4-[4-(methylsulfonylmethyl)-6-morpholin-4-yl-pyrimidin-2-yl]phenyl]urea]",280 nM
6,"C[C@H]1COCCN1c1cc(CO)nc(-c2ccc(NC(=O)Nc3ccon3)cc2)n1 [Example 39, 1-[4-[4-(Hydroxymethyl)-6-[(3S)-3-methylmorpholin-4-yl]pyrimidin-2-yl]phenyl]-3-(1,2-oxazol-3-yl)urea]",75 nM
7,"CNC(=O)NC1CCN(c2nc(N3CCOC[C@@H]3C)cc(C(C)(C)S(C)(=O)=O)n2)CC1 [Example 24n, 3-methyl-1-[1-[4-[(3S)-3-methylmorpholin-4-yl]-6-(2-methylsulfonylpropan-2-yl)pyrimidin-2-yl]-4-piperidyl]urea]",3200 nM
8,"C[C@H]1COCCN1c1cc(CNC2CC2)nc(-c2ccc(NC(=O)Nc3ccccc3)cc2)n1 [Example 30b, 1-[4-[4-[(cyclopropylamino)methyl]-6-[(3S)-3-methylmorpholin-4-yl]pyrimidin-2-yl]phenyl]-3-phenyl-urea]",180 nM
9,"C[C@H]1COCCN1c1cc(CNC2CCN(C)CC2)nc(-c2ccc(NC(=O)Nc3ccccc3)cc2)n1 [Example 30c, 1-[4-[4-[(3S)-3-methylmorpholin-4-yl]-6-[[(1-methyl-4-piperidyl)amino]methyl]pyrimidin-2-yl]phenyl]-3-phenyl-urea]",1100 nM
10,"C[C@H]1COCCN1c1cc(CO)nc(-c2ccc(NC(=O)N(C)C)cc2)n1 [Example 10, 3-[4-[4-(Hydroxymethyl)-6-[(3S)-3-methylmorpholin-4-yl]pyrimidin-2-yl]phenyl]-1,1-dimethyl-urea]",19000 nM
11,"CC(C)NC(=O)Nc1ccc(-c2nc(CS(C)(=O)=O)cc(N3CCOC[C@@H]3C)n2)cc1F [Example 4b, 3-[2-fluoro-4-[4-[(3S)-3-methylmorpholin-4-yl]-6-(methylsulfonylmethyl)pyrimidin-2-yl]phenyl]-1-propan-2-yl-urea]",140 nM
12,"CNC(=O)Nc1ccc(-c2nc(CS(C)(=O)=O)cc(N3CCOC[C@@H]3C)n2)cc1F [Example 2e, 3-[2-fluoro-4-[4-[(3S)-3-methylmorpholin-4-yl]-6-(methylsulfonylmethyl)pyrimidin-2-yl]phenyl]-1-methyl-urea]",38 nM
13,"CNC(=O)Nc1ccc(-c2nc(CS(C)(=O)=O)cc(N3CCOC[C@@H]3C)n2)cc1C [Example 8j, 3-Methyl-1-[2-methyl-4-[4-[(3S)-3-methylmorpholin-4-yl]-6-(methylsulfonylmethyl)pyrimidin-2-yl]phenyl]urea]",160 nM
14,"CCNC(=O)Nc1c(F)cc(-c2nc(N3CCOC[C@@H]3C)cc(C(C)(C)S(C)(=O)=O)n2)cc1F [Example 24ac, 3-[2,6-difluoro-4-[4-[(3S)-3-methylmorpholin-4-yl]-6-(2-methylsulfonylpropan-2-yl)pyrimidin-2-yl]phenyl]-1-ethyl-urea]",48 nM
15,"CNC(=O)Nc1ncc(-c2nc(N3CCOC[C@@H]3C)cc(C(C)(C)S(C)(=O)=O)n2)cn1 [Example 24bh, 3-methyl-1-[5-[4-[(3S)-3-methylmorpholin-4-yl]-6-(2-methylsulfonylpropan-2-yl)pyrimidin-2-yl]pyrimidin-2-yl]urea]",12 nM
16,"COc1cc(-c2nc(CS(C)(=O)=O)cc(N3CCOC[C@@H]3C)n2)ccc1NC(=O)N(C)C [Example 2c, 3-[2-methoxy-4-[4-[(3S)-3-methylmorpholin-4-yl]-6-(methylsulfonylmethyl)pyrimidin-2-yl]phenyl]-1,1-dimethyl-urea]",1200 nM
17,"CCNC(=O)Nc1ccc(-c2nc(CS(C)(=O)=O)cc(N3CCOC[C@@H]3C)n2)cc1 [Example 1, 1-Ethyl-3-[4-[4-[(3S)-3-methylmorpholin-4-yl]-6-(methylsulfonylmethyl)pyrimidin-2-yl]phenyl]urea]",6.2 nM
18,"CS(=O)(=O)Cc1cc(N2CCOCC2)nc(-c2ccc(NC(=O)Nc3ccccc3OC(F)F)cc2)n1 [Example 7e, 3-[2-(difluoromethoxy)phenyl]-1-[4-[4-(methylsulfonylmethyl)-6-morpholin-4-yl-pyrimidin-2-yl]phenyl]urea]",2600 nM
19,"C[C@H]1COCCN1c1cc(COC2CCN(C)CC2)nc(-c2ccc(NC(=O)Nc3ccccc3)cc2)n1 [Example 31, 1-[4-[4-[(3S)-3-Methylmorpholin-4-yl]-6-[(1-methyl-4-piperidyl)oxymethyl]pyrimidin-2-yl]phenyl]-3-phenyl-urea]",350 nM
